Data taken from PMC7278776, “Multidrug Resistance Modulation Activity of Silybin Derivatives and Their Anti-Inflammatory Potential” (Antioxidants, 2020).
Structures can show the parent of a compound that is named as a salt.

Assays:
A2780/DOX [1] = assay: Viability of A2780/DOX cells (resazurin)
Method: To determine the NO production, the medium was mixed with Griess reagent (0.04 g/mL, prepared in deionized water) in a 1:1 ratio. After 15 min, absorbance was recorded at 540 nm. To determine cell viability, the resazurin solution (0.03 mg/mL in PBS) was added to the cells. After 2 h of incubation, fluorescence was recorded (560/590 nm, ex./em.).
A multidrug resistant ovarian sub-line resistant to doxorubicin (A2780/DOX, Sigma-Aldrich) was cultivated in DMEM medium with 10% FBS and 1 × antibiotic antimycotic solution. Every other passage, doxorubicin at the final concentration of 0.1 µM was added to the culture medium to maintain the resistance of the cell line. To perform experiments, the cells were seeded at 1 × 10^5 cell/mL into the wells of a 96-well plate and incubated for 24 h. Afterwards, the cells were washed with PBS and fresh DMEM medium with tested compounds at 10, 20 and 30 µM were added to each well, except for the control wells. Subsequently, the cells were exposed to increasing concentrations of doxorubicin (0.6–20 µM) for 72 h. After incubation, the resazurin assay was performed as described above. The IC50 of doxorubicin was calculated for both the control and the samples and the fold change was counted up. […] The fold change lower than 1 means an antagonistic effect. (1) FOLD CHANGE=IC50 value of DOX cells treated with chemotherapeutic /IC50 value of DOX cells treated with chemotherapeutic and compound

A2780/DOX [2] = assay: Sensitization of the MDR cell line to doxorubicin; assay type: cell-based, human; conditions: Homo sapiens, no flavonolignan added, same value repeated in each column, read-out: IC50 of doxorubicin alone
[3] = tested on: nitric oxide (NO) production by LPS-stimulated macrophages (RAW 264.7); assay: NO production by LPS-stimulated macrophages (Griess); assay type: cell-based, mouse; conditions: Mus musculus, RAW264.7; RAW 264.7, LPS 1 µg/mL, 24 h; read-out: NO Production, concentration necessary to halve NO production (IC50)
Method: Immunomodulatory effect of tested compounds was determined as their ability to decrease nitric oxide (NO) production by LPS-stimulated macrophages (RAW 264.7, Sigma-Aldrich). Briefly, the cells were seeded into the 96-well plate at a density of 1 × 10^6 cells/mL in DMEM medium (supplemented with 2 mM L-glutamine and 1 × antibiotic antimycotic solution). After 48 h, the cells were washed with PBS. The MEM medium enriched with LPS (1 µg/mL) was added to the wells, together with the samples in the concentration range of 6.25–100 µM at a final volume of 100 µL. Indomethacin, a non-steroidal anti-inflammatory drug, was tested as a positive control in the concentration range 6.25–100 µM. After 24 h, the medium was used for the quantification of NO and inflammatory cytokines.
After 15 min, absorbance was recorded at 540 nm.

human recombinant P-gp = molecular target: T1, human recombinant P-gp (Homo sapiens, UniProt P08183); assay: biochemical; conditions: verapamil-stimulated P-gp ATPase, membrane fraction; read-out: P-gp, concentration necessary to halve ATP consumption (IC50)
T1 construct: purchased Promega
T1 sequence (P08183 whole entry): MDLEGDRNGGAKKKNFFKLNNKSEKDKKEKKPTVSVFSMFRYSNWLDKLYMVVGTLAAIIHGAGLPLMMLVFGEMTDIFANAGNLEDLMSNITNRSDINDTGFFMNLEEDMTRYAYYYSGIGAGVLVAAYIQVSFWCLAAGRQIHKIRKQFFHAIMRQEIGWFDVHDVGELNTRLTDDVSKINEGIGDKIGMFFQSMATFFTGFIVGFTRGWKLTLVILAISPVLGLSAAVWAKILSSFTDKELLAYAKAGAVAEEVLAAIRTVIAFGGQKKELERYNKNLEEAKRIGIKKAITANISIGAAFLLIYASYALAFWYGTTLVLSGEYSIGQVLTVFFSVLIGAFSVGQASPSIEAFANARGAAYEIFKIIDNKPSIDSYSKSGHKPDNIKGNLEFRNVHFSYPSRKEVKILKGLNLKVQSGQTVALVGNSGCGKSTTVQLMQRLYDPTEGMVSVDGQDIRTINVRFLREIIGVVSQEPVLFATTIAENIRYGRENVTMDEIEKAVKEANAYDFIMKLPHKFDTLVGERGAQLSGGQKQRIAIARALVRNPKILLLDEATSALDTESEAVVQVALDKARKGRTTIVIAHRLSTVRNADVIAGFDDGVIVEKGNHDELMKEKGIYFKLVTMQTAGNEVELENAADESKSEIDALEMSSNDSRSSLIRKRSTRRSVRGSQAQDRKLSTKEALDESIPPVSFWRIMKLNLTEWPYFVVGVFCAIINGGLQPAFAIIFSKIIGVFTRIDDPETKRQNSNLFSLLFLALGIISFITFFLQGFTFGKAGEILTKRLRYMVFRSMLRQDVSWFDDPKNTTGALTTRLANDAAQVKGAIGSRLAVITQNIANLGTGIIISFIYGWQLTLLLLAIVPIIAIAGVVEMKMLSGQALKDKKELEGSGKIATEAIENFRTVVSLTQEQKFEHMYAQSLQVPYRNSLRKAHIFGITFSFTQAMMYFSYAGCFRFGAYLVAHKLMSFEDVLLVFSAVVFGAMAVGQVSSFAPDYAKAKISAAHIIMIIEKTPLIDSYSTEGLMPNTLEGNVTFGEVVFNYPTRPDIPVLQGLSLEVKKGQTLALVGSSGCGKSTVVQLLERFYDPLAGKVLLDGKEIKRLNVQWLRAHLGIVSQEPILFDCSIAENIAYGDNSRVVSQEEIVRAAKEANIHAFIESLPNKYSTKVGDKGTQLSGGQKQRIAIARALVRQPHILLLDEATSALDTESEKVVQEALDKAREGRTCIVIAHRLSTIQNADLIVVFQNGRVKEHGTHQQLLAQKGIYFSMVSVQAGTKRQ
Method: The procedure and the dilution of the reagents were performed according to the manufacturer’s instructions. Briefly, the human recombinant P-gp-containing membrane (25 µg) was mixed in a 96-well plate with P-gp–Glo™ Assay buffer (control), verapamil (P-gp substrate, positive control, 0.2 mM), Na3VO4 (P-gp inhibitor, negative control, 0.1 mM), ATP standards (to construct the calibration curve, 0.375–3 mM) or samples (2.5 µL, in the concentration range 0.7–20 mM). After that, MgATP (5 mM) was added to total volume of 50 µL to each well to initiate the ATPase reaction. The plate was incubated for 1 h at 37 °C. Thereafter, the reaction was stopped by adding 50 µL of ATP detection reagent and incubated at room temperature for 20 min. The remaining non-metabolized ATP was detected as a luciferase-generated signal.
Using linear regression, the standard ATP curve was designed, and by subsequent interpolation of relative luminescence (RLU) of standards, the amount of ATP consumed in the samples was recalculated according to the manufacturer’s guidelines.

HepG2 cells = assay: CAA (cellular antioxidant activity) assay; assay type: cell-based; conditions: Homo sapiens; HepG2, DCFH-DA/AAPH; read-out: CAA, concentration necessary to halve the fluorescence response (IC50)
Method: For the CAA assay, human hepatocellular carcinoma HepG2 cells (ATCC, Manassas, VA, USA) were seeded into a 96-well microplate at a density of 1 × 10^5 cells/well in EMEM medium supplemented with 10% of FBS, 2 mM L-glutamine and 1 × antibiotic antimycotic solution. The cells were maintained in a CO2 incubator (5% CO2, 37 °C, Memmert GmbH & Co, Büchenbach, Germany). The following day, the plates were washed with PBS and new fresh DMEM was added into each well supplemented with tested samples in the concentration range of 6.25–100 µM and fluorescent probe DCFH-DA (12.5 mg/L). After 1 h of incubation at 37 °C, the medium was replaced with AAPH solution (0.16 mg/mL in PBS), except for the negative control, where PBS was added instead. Directly, the fluorescence was recorded for 2 h in 5 min steps at 485/540 nm excitation/emission (ex./em.).

[4] = ORAC (oxygen radical absorption capacity) assay; conditions: fluorescein/AAPH; read-out: ORAC, concentration necessary to halve the fluorescence response (IC50)
Method: Antioxidant capacity of samples was determined by ORAC (oxygen radical absorption capacity) and CAA (cellular antioxidant activity) assays. ORAC assay was realized by the previously described protocol. Briefly, 50 µL of the fluorescein solution (1.6 µg/mL in phosphate-buffered saline (PBS), pH 7.4) was added by a dispenser (MultiFlo Microplate Dispenser, BioTek Instrument, Winooski, VT, USA) into each well of a 96-well plate. Subsequently, 2 µL of tested compound in the concentration range 1.25–20 µM and 23 µL of PBS were added to the wells. The plate was incubated for 15 min at 37 °C and then 25 µL of AAPH (60 mg/mL) was added to each well. AAPH was replaced with PBS for the negative control. Immediately, the fluorescence was recorded by the microplate reader (SpectraMax i3 Multi-Mode Detection Platform, Molecular Devices, San Jose, CA, USA) for 2 h in 5 min steps (excitation/emission 485/535 nm).

With `COc1cccc2c1C(=O)c1c(O)c3c(c(O)c1C2=O)C[C@@](O)(C(=O)CO)C[C@@H]3O[C@H]1C[C@H](N)[C@H](O)[C@H](C)O1` [Doxorubicin, doxorubicin hydrochloride, reference compound] the IC25 (A2780/DOX [1]; A2780/DOX) was 0.94 µM, the IC50 (A2780/DOX [1]; Homo sapiens, A2780, read-out: IC50 (µM), concentration necessary to halve cell viability) was 1.88 ± 0.07 µM and the IC50 (A2780/DOX [2]) was 1.88 ± 0.07 µM.
`COc1ccc2c(c1)c(CC(=O)O)c(C)n2C(=O)c1ccc(Cl)cc1` [Indomethacin, indomethacin, reference compound] showed an IC50 [3] of 78.1 ± 7.5 µM.
Work on `[Na+].[Na+].[Na+].[O]=[V]([O-])([O-])[O-]` [Orthovanadate, Sodium orthovanadate (Na3VO4), reference compound] yielded an IC50 (human recombinant P-gp) of 18.9 ± 1.8 µM.
In the case of `O=c1c(O)c(-c2ccc(O)c(O)c2)oc2cc(O)cc(O)c12` [Quercetin, quercetin, reference compound], the IC50 (HepG2 cells) is reported as 5.4 ± 0.3 µM and the IC50 [4] is reported as 6 ± 0.7 µM.
